Results on 7 compounds are retold here after patent publication US8350062B2, “Synthesis and anticancer activity of new actin-targeting small-molecule agents” (priority 2009, dated 2013).

Read-outs that look alike come from different tables or passages of the source.

Assay [1] concerns A549 cells. The assay can be described thus: Cell viability assay (CellTiter-Glo), growth inhibition of A549 cells. Type of assay: cell-based, human. The note with it: 48 h incubation. On the procedure: Cell Viability Assays. All assays were performed using at least three replicate wells for each concentration tested. Original 10-25 mM DMSO stock solution of bistramide A or its analogs was diluted to 100 μM for analogs 4-8, 10 μM for analog 3, 5 μM for analog 2 and 1 μM for bistramide A (1) with F-12K cell culture media supplemented with 10% fetal bovine serum, 100 I.U./ml penicillin, 100 μg/ml streptomycin and 2 mM L-glutamine. Two-fold serial dilutions were performed and used for cell-based assays. A549 cells were grown in 96-well white plates at the density of 1,000 cells per well in 100 μl F-12K cell culture media. Cells were allowed to attach over 24 h and treated with 30 μl of the drug solution and incubated further for 48 h. After incubation, cell viability was determined using luminescence-based commercial kit (CellTiter-Glo, Promega) and luminescence measured using a Wallac Victor 3 plate reader. To measure cell growth inhibition, viability assays were performed twice: at initial time point T0 and after 48 h incubation (T48). Change in the number of viable cells was measured, and GI50 was calculated from sigmoidal plots. For analog 10, growth of A549 and PC3 cells was monitored over 96 h following addition of the drug. 100 μM was the highest concentration tested. At no point did the total DMSO conc. exceed 1%.
(In ATP-based viability assays light output follows the ATP content of the culture.)

Assay [2] concerns the target T1, G-actin (Oryctolagus cuniculus, UniProt P68135).
T1 construct: Actin was purified from rabbit muscle acetone powder; tissue Pel-Freez Biologicals (acetone powder); host or cells: rabbit muscle acetone powder
Briefly: Interaction with actin by MALDI-TOF (covalent modification). The format is biochemical, rabbit. The note with it: 1:1 actin-drug complex, 30 min. The method, then: Interaction Of Bistramide-Based Compounds With Actin By MALDI-TOF. A 1:1 actin-drug complex was incubated for 30 min in 2 mM Tris-HCl, pH 8.0, 0.2 mM CaCl2, 0.01% NaN3, 0.2 mM ATP, 1 mM 2-mercaptoethanol, diluted with deionized water to 26 μM and mixed with an equal volume of a solution of 10 mg/ml sinapinic acid in 50% CH3CN— 0.1% TFA. MALDI spectra were obtained on a Voyager-DE PRO biospectrometry workstation.

For assay [3], the system named is F-actin in A549 cells. Briefly: Fluorescent visualization of F-actin in A549 cells (Alexa Fluor 488 phalloidin). Type of assay: cell-based, human. The note with it: for concentration inducing actin depolymerization in A549 cells: 2 h incubation; for actin depolymerization in A549 cells: 100 μM, 2 h. The method, then:
The presence of the enone increased the severing efficiency of the analogs three-fold. […] We determined whether it was the depletion of actin filaments by analogs 2-5 which was responsible for the growth inhibition of A549 cells. Each of the compounds was incubated with A549 cells for 2 h at a concentration that exceeded the GI50 value by a factor of 5. The cells were then fixed, permeabilized and filamentous actin was visualized by fluorescence microscopy following Alexa Fluor 488 phalloidin staining. […] They induced depolymerization at 150 nM for bistramide A (1), 500 nM for analog 2 and 2 μM for analog 3. Analogs 4 and 5 induced depolymerization of actin only at concentrations as high as 100 μM. […] This observation was consistent with the enhanced cell-based activity of the compounds containing the C(1)-C(4) enone moiety.
Fluorescent Visualization Of F-Actin In Cells. A549 cells grown on coverslips were incubated with analogs 4-8 (100 μM) analog 3 (2 μM) or analog 2 (500 nM) or bistramide A (150 nM) in F-12K cell culture medium for 2 h, fixed with 3% formaldehyde in PBS at 25° C. for 5 min and permeabilized with 0.1% Triton X-100 at 25° C. for 10 min. After washing with PBS, coverslips were stained with Alexa Fluor 488 Phalloidin and visualized by fluorescence microscopy.

Assay [4] concerns the target T1, G-actin. Briefly: Isothermal titration calorimetry, binding to monomeric actin. On the set-up: species or system rabbit. The note with it: for Kd: isothermal titration calorimetry, 25° C. On the procedure: Isothermal Titration Calorimetry. A solution of rabbit skeletal muscle actin (5-10 μM) was titrated with bistramide A or its analog (50-100 μM) at 25° C. in buffer containing 2 mM Tris HCl, pH 8.0, 0.2 mM CaCl2, 0.01% NaN3, 0.2 mM ATP, 0.2 mM 2-mercaptoethanol. Dissociation constants were calculated from the binding curve using Origin analytical software (OriginLab) with the binding model involving a single set of identical sites
On the technique in general: Isothermal titration calorimetry measures the heat released or taken up as one component is titrated into another.

Assay [5] deals with filamentous actin (Oryctolagus cuniculus, UniProt P68135). The assay can be described thus: TIRF microscopy of actin filament severing and depolymerization. Further details: Actin was purified from rabbit muscle acetone powder; tissue Pel-Freez Biologicals (acetone powder); host or cells: rabbit muscle acetone powder. The format is biochemical, rabbit. The note with it: for Pointed-end depolymerization rate: standard deviations 0.1-0.3 subunits/s; for Barbed-end depolymerization rate: standard deviations 0.4-0.6 subunits/s; for severing of actin filaments compared to bistramide A (1): determined at 15 μM; for effect on actin depolymerization: concentrations as high as 200 μM. The source says: To gain further insight into the mode of action of bistramide A, we next investigated the interaction of the natural product and its analogs with filamentous actin. […] Similar observations have been reported for several other actin-binding natural products. However, this effect could provide only limited mechanistic information and may primarily reflect the binding of a small molecule to the filaments in close proximity to the dye and quenching of pyrene fluorescence, which could be independent of the rates of actin depolymerization. Some proteins like myosin and Actin Depolymerizing Factor (ADF)/Cofilin are known to do so. Total internal reflection fluorescence (TIRF) microscopy has recently emerged as a powerful tool to investigate actin filament dynamics and its regulation by several actin-binding proteins, as well as latrunculin A, which is […] depolymerizing filamentous actin in vitro. Thus, we decided to employ TIRF microscopy to observe in real time the effects of bistramide-based compounds on actin polymerization in vitro. We believe this is the first instance where TIRF microscopy has been utilized to study the severing of actin filaments by a small molecule. We polymerized G-actin containing 25% of tetramethylrhodamine-functionalized and 10% of biotin-functionalized actin. The resulting actin filaments were immobilized onto the streptavidin-coated glass slides (in a flow cell). Analogs 1-8 were flown through the flow cell and imaged by time-lapse TIRF microscopy.
Total Internal Reflection Fluorescence Microscopy. Actin filament severing was studied using a custom-built total internal reflection fluorescence microscope. Images were collected with a 100×, 1.45 NA objective (Olympus) and an EMCCD camera (iXon, Andor Technologies). Glass flow cell (6 μl volume) was washed with 0.25 mg/ml neutravidin in F-buffer (50 mM KCl, 1 mM MgCl2, 1 mM EGTA, 10 mM imidiazole, 2 mM ATP, 0.2 mM 2-mercaptoethanol, 2 min) and blocked with 1 mg/ml BSA in F-buffer (2 min). Ten microliters of 200 nM Mg^2+-F-actin (10% biotinylated, 25% labeled with maleimide-6-tetramethylrhodamine) in TIRF-buffer (50 mM KCl, 1 mM MgCl2, 1 mM EGTA, 10 mM imidiazole, 2 mM ATP, 4.5 mg/ml glucose, 0.5% 2-mercaptoethanol, 4.3 mg/ml glucose oxidase, 0.7 mg/ml catalase) was added to the flowcell and incubated for 2 min. The chamber was rinsed with TIRF-buffer and imaged. Compounds were freshly diluted from their DMSO stock solutions in TIRF-buffer and were added to the chamber immediately after the start of each experiment. Images were collected at 0.2-s exposures every 3 s for 200 frames. For kinetics studies, movies of suitable length were obtained for each of the analog concentrations. Analysis was performed using ImageJ.

Where [6] appears, read: Homo sapiens, A549, 48 h, read-out: GI50.
[7] abbreviates: Homo sapiens, A549, 48 h, values of the text, read-out: GI50.

The term GI50 denotes the concentration at which growth is held to half of that of the control. A word on the Kd: it is the concentration at which binding is half-saturated. On to `C=C[C@@H](C)CC[C@@H]1CCC[C@]2(CCC(C)[C@@H](CCCNC(=O)[C@@H](C)[C@@H](O)CNC(=O)CC3O[C@H](CC(=O)/C=C/C)CCC3C)O2)O1` (stereo partly drawn) [Analog 2], for which the GI50 in assay [1] (setting [6]) is 87 nM. Further, the GI50 in assay [1] (setting [7]) stood at 87.1 nM. Also, in assay [2], the “covalent modification of G-actin” value is given as “covalently modified G-actin”. For the same compound, in assay [3], the “concentration inducing actin depolymerization in A549 cells” value amounted to 0.5 µM. The equilibrium dissociation constant (Kd) in assay [4] (read-out: Kd) was determined as 70 nM. Further, in assay [5] (compound at 15 μM), the “No. of breaks per 100 μm” value is given as 41.8 per 100 μm, the Pointed-end depolymerization rate came to 0.48 subunits/s and the Barbed-end depolymerization rate was 1.90 subunits/s. For the same compound, in assay [5], the “severing of actin filaments compared to bistramide A (1)” value (“severing … compared to bistramide A (1)” below) is “severed actin filaments albeit with lesser efficiency”. In addition, the “potency at severing filamentous actin relative to analog 4” value in assay [5] (initial rate of severing, 1-15 μM) is “at least three times more potent at severing filamentous actin”.
In the case of `C=CCC[C@@H]1CCC[C@]2(CCC[C@@H](CCCNC(=O)[C@@H](C)[C@@H](O)CNC(=O)CC3O[C@H](CC(=O)/C=C/C)CCC3C)O2)O1` (stereo partly drawn) [Analog 3], the 50% growth inhibitory concentration (GI50) in assay [1] (setting [6]) was 323 nM. The GI50 in assay [1] (setting [7]) amounted to 323 nM. For the same compound, the “covalent modification of G-actin” value in assay [2] is on record as “covalently modified G-actin”. In assay [3], the “concentration inducing actin depolymerization in A549 cells” value stood at 2 µM. In addition, the Kd in assay [4] (read-out: Kd) turned out to be 1500 nM. Moreover, in assay [5], the “concentration at which actin filaments were severed” value came out at 200 µM. For the same compound, in assay [5] (compound at 200 μM), the “No. of breaks per 100 μm” value is 13.3 per 100 μm, the Pointed-end depolymerization rate was found to be 0.57 subunits/s and the Barbed-end depolymerization rate was determined as 1.84 subunits/s.
`C=CC[C@@H]1CCCC(CC(=O)NC[C@H](O)[C@H](C)C(=O)NCCC[C@H]2O[C@@]3(CCC[C@@H](CC[C@H](C)C=C)O3)CCC2C)O1` (stereo partly drawn) [Analog 4]: the 50% growth inhibitory concentration (GI50) in assay [1] (setting [6]) was 11200 nM. In addition, the “covalent modification of G-actin” value in assay [2] is on record as “no cross-linking was observed”. Also, the “concentration inducing actin depolymerization in A549 cells” value in assay [3] was 100 µM. In addition, the Kd in assay [4] (read-out: Kd) turned out to be 319 nM. In assay [5] (compound at 15 μM), the “No. of breaks per 100 μm” value came out at 16.5 per 100 μm, the Pointed-end depolymerization rate worked out at 0.51 subunits/s and the Barbed-end depolymerization rate is 1.92 subunits/s. Also, the “severing … compared to bistramide A (1)” value in assay [5] is “severed actin filaments albeit with lesser efficiency”.
`C=C[C@@H](C)CC[C@@H]1CCC[C@]2(CCC(C)[C@@H](CCCNC(=O)[C@@H](C)[C@@H](O)CNC(=O)CCOC)O2)O1` (stereo partly drawn) [Analog 5]: the GI50 in assay [1] (setting [6]) is 15100 nM. Also, the “covalent modification of G-actin” value in assay [2] is “no cross-linking was observed”. Further, the “concentration inducing actin depolymerization in A549 cells” value in assay [3] stood at 100 µM. In addition, the Kd in assay [4] (read-out: Kd) was determined as 43 nM. Moreover, in assay [5] (compound at 15 μM), the “No. of breaks per 100 μm” value is given as 13.0 per 100 μm, the Pointed-end depolymerization rate is recorded as 0.55 subunits/s and the Barbed-end depolymerization rate stood at 1.93 subunits/s. For the same compound, the “severing … compared to bistramide A (1)” value in assay [5] was “severed actin filaments albeit with lesser efficiency”.
With `C=CCC[C@@H]1CCC[C@]2(CCC[C@@H](CCCNC(=O)[C@@H](C)[C@@H](O)CNC(=O)CCOC)O2)O1` [Analog 6], the concentration for 50% growth inhibition (GI50) result in assay [1] is recorded as “No cell -based activity”. In addition, in assay [1] (setting [6]), the GI50 is > 100000 nM. The “covalent modification of G-actin” value in assay [2] is on record as “no cross-linking was observed”. Further, in assay [3], the “actin depolymerization in A549 cells” value is “No depolymerization was observed”. Also, the Kd in assay [4] (read-out: Kd) is 680 nM. Also, the “concentration at which actin filaments were severed” value in assay [5] came out at 200 µM. Besides, in assay [5] (compound at 200 μM), the “No. of breaks per 100 μm” value worked out at 3.4 per 100 μm, the Pointed-end depolymerization rate stood at 0.41 subunits/s and the Barbed-end depolymerization rate is 2.29 subunits/s.
Regarding `C=C[C@@H](C)CC[C@@H]1CCC[C@]2(CCC(C)[C@@H](CCCNC(C)=O)O2)O1` (stereo partly drawn) [Analog 7], in assay [1], the GI50 entry is listed as “No cell -based activity”. For the same compound, the “actin depolymerization in A549 cells” value in assay [3] is “No depolymerization was observed”. For the same compound, in assay [4], the “observable activity (actin binding by ITC and inhibition of A549 proliferation)” value was “neither the spiroketal (analog 7) nor the central amide subunit (analog 8) alone displayed any observable activity”; the Kd result is on record as “No actin binding”. Also, in assay [5] (compound at 200 μM), the “No. of breaks per 100 μm” value stood at 0.2 per 100 μm, the Pointed-end depolymerization rate is recorded as 0.32 subunits/s and the Barbed-end depolymerization rate was determined as 1.87 subunits/s. The “effect on actin depolymerization” value in assay [5] is reported as “no effect on actin depolymerization”.
`COCCC(=O)NC[C@H](O)[C@H](C)C(=O)NCCCCC(C)C` [Analog 8]: in assay [1], the GI50 result was “No cell -based activity”. In addition, the “actin depolymerization in A549 cells” value in assay [3] is “No depolymerization was observed”. In addition, in assay [4], the “observable activity (actin binding by ITC and inhibition of A549 proliferation)” value is “neither the spiroketal (analog 7) nor the central amide subunit (analog 8) alone displayed any observable activity”; the Kd result is listed as “No actin binding”. Further, in assay [5] (compound at 200 μM), the “No. of breaks per 100 μm” value is reported as “None”, the Pointed-end depolymerization rate was found to be 0.21 subunits/s and the Barbed-end depolymerization rate turned out to be 2.15 subunits/s. In assay [5], the “effect on actin depolymerization” value was “no effect on actin depolymerization”.
